Measurements taken from patent publication US9932331B2, “Phenyl tetrahydroisoquinoline compound substituted with heteroaryl” (TAISHO PHARMACEUTICAL CO., LTD, priority 2014, dated 2018).
Counter-ions that a name gives are not always drawn.

Target: T1, human NHE3 (Homo sapiens, UniProt P48764)
T1 sequence (P48764 26-834): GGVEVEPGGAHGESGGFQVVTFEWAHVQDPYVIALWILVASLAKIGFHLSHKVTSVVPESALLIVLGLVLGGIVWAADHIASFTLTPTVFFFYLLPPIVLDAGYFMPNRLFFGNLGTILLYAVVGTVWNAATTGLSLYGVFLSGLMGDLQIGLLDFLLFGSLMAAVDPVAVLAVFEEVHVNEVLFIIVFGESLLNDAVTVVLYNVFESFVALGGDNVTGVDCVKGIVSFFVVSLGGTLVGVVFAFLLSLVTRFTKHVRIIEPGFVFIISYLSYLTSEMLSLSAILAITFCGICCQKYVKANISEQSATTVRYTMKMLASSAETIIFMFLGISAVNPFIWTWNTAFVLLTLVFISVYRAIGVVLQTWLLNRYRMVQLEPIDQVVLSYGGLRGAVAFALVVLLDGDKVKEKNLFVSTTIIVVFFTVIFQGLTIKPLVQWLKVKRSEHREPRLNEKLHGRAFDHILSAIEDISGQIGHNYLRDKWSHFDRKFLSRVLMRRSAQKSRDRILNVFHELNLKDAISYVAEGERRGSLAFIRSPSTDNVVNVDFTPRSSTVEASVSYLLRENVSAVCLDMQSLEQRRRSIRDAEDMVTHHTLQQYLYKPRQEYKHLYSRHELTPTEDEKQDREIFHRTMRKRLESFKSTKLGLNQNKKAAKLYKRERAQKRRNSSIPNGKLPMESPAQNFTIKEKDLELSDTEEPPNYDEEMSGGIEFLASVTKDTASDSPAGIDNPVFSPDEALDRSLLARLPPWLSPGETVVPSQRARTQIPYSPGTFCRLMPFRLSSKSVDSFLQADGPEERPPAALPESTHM
Assay: NHE3 inhibition test (recovery of intracellular pH in cell line stably expressing human NHE3)
Type: cell-based
Details: OK cells deficient in endogenous NHE stably expressing human NHE3; BCECF fluorescence, initial rate of pH recovery; read-out: human NHE3 inhibitory activity IC50
Experimental: (1) Preparation of Cell Line Deficient in Endogenous NHE
The cell line deficient in endogenous NHE was prepared according to the method of Jacques Pouyssegur et al. (Proc. Natl. Acad. Sci. USA. 1984, Vol. 81, 4833-4837) using opossum kidney (OK) cells (ATCC).
(2) Preparation of Expression Plasmid and Cell Line Stably Expressing Human NHE3
The expression plasmid was constructed by inserting a human NHE3 (SLC9A3, Accession No. NM_004174) cDNA sequence (GeneCopoeia, Inc.) into a pcDNA3.2/V5-DEST vector (Life Technologies Corp.).
The OK cells deficient in endogenous NHE were transfected with the constructed human NHE3 expression plasmid to prepare stably expressing cells. The transfection was carried out by electroporation using a Nucleofector 2b device (Lonza Group Ltd.). A stably expressing cell line was selected in medium supplemented with 500 μg/mL Geneticin (Life Technologies Corp.) and isolated.
NHE3 activity measurement method using cell: The activity was determined by using the NHE3-mediated recovery of intracellular pH occurring after intracellular acidification, as an index. The intracellular pH was measured by a partial modification of the pH-sensitive fluorescent indicator method reported by Tsien et al. (Proc. Natl. Acad. Sci. USA., 1984, 81, 7436-7440).
The cell line stably expressing human NHE3 was inoculated on a poly-D-lysine-coated 96-well plate (Greiner Bio-one) and cultured overnight. […] Then, Hank's balanced salt buffer solution containing 0.25 μM BCECF-AM (Dojindo Laboratories) was added to the cells, which were then incubated at 37° C. for 30 minutes. […] The cells thus incubated in the NH4Cl buffer solution were washed with NH4Cl-free buffer solution (133.8 mM choline chloride, […], 5 mM glucose, 4.7 mM KCl, 1.25 mM CaCl2, 1.25 mM MgCl2, 0.97 mM K2HPO4, 0.23 mM KH2PO4, pH 7.4) to decrease the intracellular pH. After the washing step, 70 μL of a test compound solution prepared with the NH4Cl-free buffer solution was added to the cells, and 70 iμL of sodium ion-containing buffer solution (133.8 mM NaCl, 10 mM HEPES, 5 mM glucose, 4.7 mM KCl, 1.25 mM CaCl2, 1.25 mM MgCl2, 0.97 mM Na2HPO4, 0.23 mM NaH2PO4, pH 7.4) was added thereto in a measurement system FDSS6000 (Hamamatsu Photonics K.K.) to start the recovery of pH. The recovery of intracellular pH was monitored using BCECF fluorescence (excitation wavelength: 480 nm, fluorescence wavelength: 520 to 560 nm), and the initial rate of the pH recovery was plotted. The recovery of pH without test compound was defined as the maximum recovery, and the test compound concentration necessary to inhibit 50% of the maximum recovery was calculated as an IC50 value.

Structure (SMILES) | IC50
Cc1nnc(-c2cccc([C@@H]3CN(C)Cc4c(Cl)cc(Cl)cc43)c2)[nH]1 [Example 3-1, (4S)-6,8-Dichloro-2-methyl-4-[3-(3-methyl-1H-1,2,4-triazol-5-yl)phenyl]-1,2,3,4-tetrahydroisoquinoline hydrochloride] | 49.1 nM
Cc1nc(-c2cccc([C@@H]3CN(C)Cc4c(Cl)cc(Cl)cc43)c2)no1 [Example 4-1, (4S)-6,8-Dichloro-2-methyl-4-[3-(5-methyl-1,2,4-oxadiazol-3-yl)phenyl]-1,2,3,4-tetrahydroisoquinoline hydrochloride] | 554 nM
Cc1cc(-c2cccc([C@@H]3CN(C)Cc4c(Cl)cc(Cl)cc43)c2)on1 [Example 5-1, (4S)-6,8-Dichloro-2-methyl-4-[3-(3-methyl-1,2-oxazol-5-yl)phenyl]-1,2,3,4-tetrahydroisoquinoline hydrochloride] | 760 nM
CN1Cc2c(Cl)cc(Cl)cc2[C@H](c2cccc(-c3cn(CCOCCOCCNC(=O)NCCCCNC(=O)NCCOCCOCCn4cc(-c5cccc([C@@H]6CN(C)Cc7c(Cl)cc(Cl)cc76)c5)nn4)nn3)c2)C1 [Example 6-1, 1,1′-Butane-1,4-diylbis[3-(2-{2-[2-(4-{3-[(4S)-6,8-dichloro-2-methyl-1,2,3,4-tetrahydroisoquinolin-4-yl]phenyl}-1H-1,2,3-triazol-1-yl)ethoxy]ethoxy}ethyl)urea]] | 2.4 nM
CN1Cc2c(Cl)cc(Cl)cc2[C@H](c2cccc(-c3cn(CCOCCOCCNC(=O)CCC(=O)NCCOCCOCCn4cc(-c5cccc([C@@H]6CN(C)Cc7c(Cl)cc(Cl)cc76)c5)nn4)nn3)c2)C1 [Example 6-3, N,N′-Bis(2-{2-[2-(4-{3-[(4S)-6,8-dichloro-2-methyl-1,2,3,4-tetrahydroisoquinolin-4-yl]phenyl}-1H-1,2,3-triazol-1-yl)ethoxy]ethoxy}ethyl)butanediamide hydrochloride] | 301 nM
CN1Cc2c(Cl)cc(Cl)cc2[C@H](c2cccc(-c3cn(CCOCCOCCNC(=O)[C@H](O)[C@@H](O)C(=O)NCCOCCOCCn4cc(-c5cccc([C@@H]6CN(C)Cc7c(Cl)cc(Cl)cc76)c5)nn4)nn3)c2)C1 [Example 6-6, (2R,3R)—N,N′-Bis(2-{2-[2-(4-{3-[(4S)-6,8-dichloro-2-methyl-1,2,3,4-tetrahydroisoquinolin-4-yl]phenyl}-1H-1,2,3-triazol-1-yl)ethoxy]ethoxy}ethyl)-2,3-dihydroxybutanediamide hydrochloride] | 75 nM
CN1Cc2c(Cl)cc(Cl)cc2[C@H](c2cccc(-c3cn(CCOCCOCCNC(=O)[C@@H](O)[C@H](O)[C@H](O)[C@@H](O)C(=O)NCCOCCOCCn4cc(-c5cccc([C@@H]6CN(C)Cc7c(Cl)cc(Cl)cc76)c5)nn4)nn3)c2)C1 [Example 6-7, (2R,3S,4R,5S)—N,N′-Bis(2-{2-[2-(4-{3-[(4S)-6,8-dichloro-2-methyl-1,2,3,4-tetrahydroisoquinolin-4-yl]phenyl}-1H-1,2,3-triazol-1-yl)ethoxy]ethoxy}ethyl)-2,3,4,5-tetrahydroxyhexanediamide hydrochloride] | 1.1 nM
CN1Cc2c(Cl)cc(Cl)cc2[C@H](c2cccc(-c3cn(CCOCCOCCOCCNC(=O)NCCNC(=O)NCCNC(=O)NCCOCCOCCOCCn4cc(-c5cccc([C@@H]6CN(C)Cc7c(Cl)cc(Cl)cc76)c5)nn4)nn3)c2)C1 [Example 6-13, 1,1′-[Carbonylbis(iminoethane-2,1-diyl)]bis {3-[2-(2-{2-[2-(4-{3-[(4S)-6,8-dichloro-2-methyl-1,2,3,4-tetrahydroisoquinolin-4-yl]phenyl}-1H-1,2,3-triazol-1-yl)ethoxy]ethoxy}ethoxy)ethyl]urea}hydrochloride] | 2.1 nM
CN1Cc2c(Cl)cc(Cl)cc2[C@H](c2cccc(-c3cc(OCCOCCOCCNC(=O)Nc4ccc(NC(=O)NCCOCCOCCOc5cc(-c6cccc([C@@H]7CN(C)Cc8c(Cl)cc(Cl)cc87)c6)ncn5)cc4)ncn3)c2)C1 [Example 7-11, 1,1′-Benzene-1,4-diylbis {3-[2-(2-(2-{2-[(6-{3-[(4S)-6,8-dichloro-2-methyl-1,2,3,4-tetrahydroisoquinolin-4-yl]phenyl}pyrimidin-4-yl)oxy]ethoxy}ethoxy)ethyl]urea} trifluoroacetate] | 33.5 nM

Now from value to compound:

IC50 | Structure (SMILES)
2.2 nM | CN1Cc2c(Cl)cc(Cl)cc2[C@H](c2cccc(-c3cn(CCOCCOCCOCCOCCNC(=O)NCCCCNC(=O)NCCOCCOCCOCCOCCn4cc(-c5cccc([C@@H]6CN(C)Cc7c(Cl)cc(Cl)cc76)c5)nn4)nn3)c2)C1 [Example 7-1, 1,1′-Butane-1,4-diylbis {3-[14-(4-{3-[(4S)-6,8-dichloro-2-methyl-1,2,3,4-tetrahydroisoquinolin-4-yl]phenyl}-1H-1,2,3-triazol-1-yl)-3,6,9,12-tetraoxatetradec-1-yl]urea}hydrochloride]
11 nM | CN1Cc2c(Cl)cc(Cl)cc2[C@H](c2cccc(-c3cnc(NCCOCCOCCNC(=O)NCCCCNC(=O)NCCOCCOCCNc4ncc(-c5cccc([C@@H]6CN(C)Cc7c(Cl)cc(Cl)cc76)c5)cn4)nc3)c2)C1 [Example 7-3, 1,1′-Butane-1,4-diylbis {3-[2-(2-{2-[(5-{3-[(4S)-6,8-dichloro-2-methyl-1,2,3,4-tetrahydroisoquinolin-4-yl]phenyl}pyrimidin-2-yl)amino]ethoxy}ethoxy)ethyl]urea}hydrochloride]
6.8 nM | CN1Cc2c(Cl)cc(Cl)cc2[C@H](c2cccc(-c3ccc(NCCOCCOCCNC(=O)NCCCCNC(=O)NCCOCCOCCNc4ccc(-c5cccc([C@@H]6CN(C)Cc7c(Cl)cc(Cl)cc76)c5)cn4)nc3)c2)C1 [Example 7-7, 1,1′-Butane-1,4-diylbis {3-[2-(2-{2-[(5-{3-[(4S)-6,8-dichloro-2-methyl-1,2,3,4-tetrahydroisoquinolin-4-yl]phenyl}pyridin-2-yl)amino]ethoxy}ethoxy)ethyl]urea}]
1080 nM | CN1Cc2c(Cl)cc(Cl)cc2[C@H](c2cccc(-c3ccc(NCCOCCOCCNC(=O)Nc4ccc(NC(=O)NCCOCCOCCNc5ccc(-c6cccc([C@@H]7CN(C)Cc8c(Cl)cc(Cl)cc87)c6)cn5)cc4)nc3)c2)C1 [Example 7-8, 1,1′-Benzene-1,4-diylbis{3-[2-(2-{2-[(5-{3-[(4S)-6,8-dichloro-2-methyl-1,2,3,4-tetrahydroisoquinolin-4-yl]phenyl}pyridin-2-yl)amino]ethoxy}ethoxy)ethyl]urea}]
7.5 nM | CN1Cc2c(Cl)cc(Cl)cc2[C@H](c2cccc(-c3cc(OCCOCCOCCNC(=O)NCCCCNC(=O)NCCOCCOCCOc4cc(-c5cccc([C@@H]6CN(C)Cc7c(Cl)cc(Cl)cc76)c5)ncn4)ncn3)c2)C1 [Example 7-12, 1,1′-Butane-1,4-diylbis {3-[2-(2-{2-[(6-{3-[(4S)-6,8-dichloro-2-methyl-1,2,3,4-tetrahydroisoquinolin-4-yl]phenyl}pyrimidin-4-yl)oxy]ethoxy}ethoxy)ethyl]urea} tetrahydrochloride]
